Experimental data taken from patent US12577213B2 (NINGBO COMBIREG PHARMACEUTICAL TECHNOLOGY CO., LTD., priority 2020, dated 2026).

What was measured:
OVCAR-3 (ovarian cancer) = assay: NCI method SRB growth inhibition, OVCAR-3; format: cell-based; settings: Homo sapiens; OVCAR-3, treated 48 hours, SRB stain
Text: (§1) In this embodiment, the method of National Cancer Institute (NCI) was used to evaluate the anti-tumor activity of the embodiment compounds in the present disclosure. Nine representative cell lines were selected for activity evaluation, including A549 (non-small cell lung cancer), HCT116 (colon cancer), SF295 (central nervous system tumor), LOX-IMVI (melanoma), 786-0 (renal cancer), K562 (leukemia), PC-3 (prostate cancer), OVCAR-3 (ovarian cancer) and HS 578T (breast cancer).
(§2) The specific method was as follows: 60 tumor cell lines of 9 kinds of human cancers were used to evaluate the inhibitory activity of the compound in vitro. A test group, a parallel control group and a vehicle control group were set up. The parallel control group was fixed immediately before the compound was added; the cells in the test group were fixed after being treated with the compound for 48 hours; the vehicle control group was fixed after an equal volume of complete medium was added for 48 hours. Sulforhodamine B (SRB) was used to stain, and the OD value was measured at a wavelength of 515 nm. The specific calculation method was as follows: the OD value of the parallel control group was recorded as Tz, the OD value of the vehicle control group was recorded as C, and the OD value of the test group was recorded as (Ti). If Ti≥Tz, it means that the cells still grow after the drug was added, and the growth rate %=[(Ti−Tz)/(C−Tz)]×100; if Ti<Tz, it means that the cells are killed after the drug was added, and the growth rate %=[(Ti−Tz)/Tz]×100. Three parameters were used to evaluate the anti-tumor activity of compounds in this method: 50% growth inhibitory concentration (GI50): i.e. the compound concentration at [(Ti−Tz)/(C−Tz)]×100=50; complete growth inhibitory concentration (TGI): the compound concentration at Ti=Tz; the drug concentration required to kill 50% of the cells (LC50): i.e. the compound concentration at [(Ti−Tz)/Tz]×100=−50.
(§3) The inhibitory activities of the embodiment compounds on nine representative tumor cell lines were listed in detail in Table 1. Wherein, the GI50 value means “50% growth inhibition rate”, that is, the concentration of the compound to be tested when it can inhibit […] of cell growth; “ND” means not detected.

[1] = test system: SF295 (central nervous system tumor); assay: NCI method SRB growth inhibition, SF295; format: cell-based; settings: Homo sapiens, SF-295; SF295, treated 48 hours, SRB stain
Text: as §1, §2, §3

[2] = Liver microsomes stability; format: in vitro ADME, human; settings: 1 μM compound, 1 mg/mL human liver microsomes, 1 mM NADPH; for half-life at 1 μM: human, human liver microsomes, read-out: T½ of HLM
Method: The compound to be tested with final concentration of 1 μM was incubated with 1 mg/mL of human liver microsomes and 1 mM of NADPH, and a group without NADPH was set as a negative control. The reaction mixture was quenched with methanol at five time points of 0, 5, 15, 30 and 60 min, respectively, then centrifuged at 2500 rpm for 20 min to precipitate proteins, and the resulting supernatant was analyzed by LC-MS/MS. The data was analyzed and the k value and half-life T1/2 was calculated, T1/2(min)=0.693/k.
Wherein, compounds a, b and c are active compounds disclosed in patent No. ZL201610154581.3.

HS 578T (breast cancer) = assay: NCI method SRB growth inhibition, HS 578T; format: cell-based; settings: Homo sapiens, HS578T, treated 48 hours, SRB stain
Text: as §1, §2, §3

K562 (leukemia) = assay: NCI method SRB growth inhibition, K562; format: cell-based; settings: Homo sapiens; K562, treated 48 hours, SRB stain
Text: as §1, §2, §3

786-0 (renal cancer) = assay: NCI method SRB growth inhibition, 786-0; format: cell-based; settings: Homo sapiens; 786-0, treated 48 hours, SRB stain
Text: as §1, §2, §3

HCT116 (colon cancer) = assay: NCI method SRB growth inhibition, HCT116; format: cell-based; settings: Homo sapiens, HCT-116; HCT116, treated 48 hours, SRB stain
Text: as §1, §2, §3

[3] = test system: A549 (non-small cell lung cancer); assay: NCI method SRB growth inhibition, A549; format: cell-based; settings: Homo sapiens; A549, treated 48 hours, SRB stain
Text: as §1, §2, §3

LOX-IMVI (melanoma) = assay: NCI method SRB growth inhibition, LOX-IMVI; format: cell-based; settings: Homo sapiens, treated 48 hours, SRB stain
Text: as §1, §2, §3

PC-3 (prostate cancer) = assay: NCI method SRB growth inhibition, PC-3; format: cell-based; settings: Homo sapiens; PC-3, treated 48 hours, SRB stain
Text: as §1, §2, §3

Row | Structure (SMILES) | GI50 (OVCAR-3 (ovarian cancer)) | GI50 [1] | microsomal CLint at 1 μM [2] | half-life at 1 μM [2] | GI50 (HS 578T (breast cancer)) | GI50 (K562 (leukemia)) | GI50 (786-0 (renal cancer)) | GI50 (HCT116 (colon cancer)) | GI50 [3] | GI50 (LOX-IMVI (melanoma)) | GI50 (PC-3 (prostate cancer))
1 | [2H]C([2H])([2H])Oc1cc(C(=O)Nc2cc3c(cc2Oc2cc(C)cc(C)c2)C(=O)N[C@@H](CC(=O)N2CCN(C)CC2)C(=O)N3)c(Br)c(OC([2H])([2H])[2H])c1OC([2H])([2H])[2H] [Compound 29, (S)-2-bromo-N-[7-(3,5-dimethylphenoxy)-3-[2-(4-methylpiperazin-1-yl)-2-oxoethyl]-2,5-dioxo-2,3,4,5-tetrahydro-1H-benzo[e][1,4]diazepin-8-yl]-3,4,5-tris(trideuteromethoxy)benzamide] | < 5 nM | 93.8 nM | 5.4 µL/min/mg | 128 min | < 5 nM | 4.2 nM | 244 nM | 12 nM | 11.8 nM | < 5 nM | < 5 nM
2 | [2H]C([2H])([2H])Oc1cc(C(=O)Nc2cc3c(cc2Oc2cc(C)cc(C)c2)C(=O)N(C)[C@@H](CC(=O)N(OC([2H])([2H])[2H])C([2H])([2H])[2H])C(=O)N3)c(Cl)c(OC([2H])([2H])[2H])c1OC([2H])([2H])[2H] [Compound 39] | < 5 nM | 12 nM | 13.7 µL/min/mg | 50.6 min | 6 nM | < 5 nM | 9 nM | 7 nM | < 5 nM | < 5 nM | < 5 nM
3 | [2H]C([2H])([2H])Oc1cc(C(=O)Nc2cc3c(cc2Oc2cc(C)cc(C)c2)C(=O)N[C@@H](CC(=O)N(OC([2H])([2H])[2H])C([2H])([2H])[2H])C(=O)N3)c(Cl)c(OC([2H])([2H])[2H])c1OC([2H])([2H])[2H] [Compound 38] | < 5 nM | 27 nM | 7.2 µL/min/mg | 96.3 min | 21 nM | < 5 nM | 23 nM | 13 nM | < 5 nM | 5.2 nM | < 5 nM
4 | [2H]C([2H])([2H])Oc1cc(C(=O)Nc2cc3c(cc2Oc2cc(C)cc(C)c2)C(=O)N[C@@H](CC(=O)N(CC)CC)C(=O)N3)c(Br)c(OC([2H])([2H])[2H])c1OC([2H])([2H])[2H] [Compound 4, (S)-2-bromo-N-[3-[2-(diethylamino)-2-oxoethyl]-7-(3,5-dimethylphenoxy)-2,5-dioxo-2,3,4,5-tetrahydro-1H-benzo[e][1,4]diazepin-8-yl]-3,4,5-tris(trideuteromethoxy)benzamide] | < 5 nM | 6 nM | 20.5 µL/min/mg | 33.8 min |  | < 5 nM | 11.9 nM | < 5 nM | < 5 nM | < 5 nM | < 5 nM
5 | CCN(CC)C(=O)C[C@@H]1NC(=O)c2cc(Oc3cc(C)cc(C)c3)c(NC(=O)c3cc(OC)c(OC)c(OC)c3Br)cc2NC1=O [b, reference compound] |  |  | 26.4 µL/min/mg | 26.3 min |  |  |  |  |  |  | 
6 | [2H]C([2H])([2H])Oc1cc(C(=O)Nc2cc3c(cc2Oc2cc(C)cc(C)c2)C(=O)N[C@@H](CC(=O)N(C)OC([2H])([2H])[2H])C(=O)N3)c(Br)c(OC([2H])([2H])[2H])c1OC([2H])([2H])[2H] [Compound 40] | < 5 nM | < 5 nM | 9 µL/min/mg | 77 min | < 5 nM | < 5 nM | < 5 nM | < 5 nM | < 5 nM | < 5 nM | < 5 nM
7 | [2H]C([2H])([2H])Oc1cc(C(=O)Nc2cc3c(cc2Oc2cc(C)cc(C)c2)C(=O)N[C@@H](CC(=O)N(OC([2H])([2H])[2H])C([2H])([2H])[2H])C(=O)N3)c(Br)c(OC([2H])([2H])[2H])c1OC([2H])([2H])[2H] [Compound 37] | < 5 nM | 12 nM | 7.7 µL/min/mg | 90 min | < 5 nM | < 5 nM | 8.6 nM | < 5 nM | < 5 nM | < 5 nM | < 5 nM
8 | [2H]c1c(Oc2cc3c(cc2NC(=O)c2cc(OC)c(OC)c(OC)c2Cl)NC(=O)[C@H](CC(=O)N(CC)CC)NC3=O)c([2H])c(C([2H])([2H])[2H])c([2H])c1C([2H])([2H])[2H] [Compound 25, (S)-2-chloro-N-[3-[2-(diethylamino)-2-oxoethyl]-7-[3,5-bis(trideuteromethyl)-2,4,6-trideuterophenoxy]-2,5-dioxo-2,3,4,5-tetrahydro-1H-benzo[e][1,4]diazepin-8-yl]-3,4,5-trimethoxybenzamide] | 8.3 nM | 14.2 nM | 29.8 µL/min/mg | 23.3 min | 30.3 nM | < 5 nM | 15.8 nM | < 5 nM | 19.1 nM | < 5 nM | 5 nM
9 | [2H]c1c(C)c([2H])c(Oc2cc3c(cc2NC(=O)c2cc(OC)c(OC)c(OC)c2Cl)NC(=O)[C@H](CC(=O)N(CC)CC)NC3=O)c([2H])c1C [Compound 24, (S)-2-chloro-N-[3-[2-(diethylamino)-2-oxoethyl]-7-(3,5-dimethyl-2,4,6-trideuterophenoxy)-2,5-dioxo-2,3,4,5-tetrahydro-1H-benzo[e][1,4]diazepin-8-yl]-3,4,5-trimethoxybenzamide] | 87.6 nM | 135 nM | 28.4 µL/min/mg | 24.4 min | 188 nM | 25.5 nM | 276 nM | 123 nM | 207 nM | 65.8 nM | 39.5 nM
10 | CCN(CC)C(=O)C[C@@H]1NC(=O)c2cc(Oc3cc(C)cc(C)c3)c(NC(=O)c3cc(OC)c(OC)c(OC)c3Cl)cc2NC1=O [c, reference compound] |  |  | 26.5 µL/min/mg | 26.2 min |  |  |  |  |  |  | 
11 | [2H]C([2H])([2H])N(C(=O)C[C@H]1C(=O)Nc2cc(NC(=O)c3cc(OC)c(OC)c(OC)c3Br)c(Oc3cc(C)cc(C)c3)cc2C(=O)N1C)C([2H])([2H])[2H] [Compound 15, (S)-2-bromo-N-[3-[2-[bis(trideuteromethyl)amino]-2-oxoethyl]-7-(3,5-dimethylphenoxy)-4-methyl-2,5-dioxo-2,3,4,5-tetrahydro-1H-benzo[e][1,4]diazepin-8-yl]-3,4,5-trimethoxybenzamide] | < 5 nM | < 5 nM | 10.8 µL/min/mg | 64.2 min |  | < 5 nM | 6.2 nM |  | < 5 nM | < 5 nM | < 5 nM
12 | [2H]C([2H])([2H])N(C(=O)C[C@@H]1NC(=O)c2cc(Oc3cc(C)cc(C)c3)c(NC(=O)c3cc(OC)c(OC)c(OC)c3Br)cc2NC1=O)C([2H])([2H])[2H] [Compound 22, (S)-2-bromo-N-[3-[2-[bis(trideuteromethyl)amino]-2-oxoethyl]-7-(3,5-dimethylphenoxy)-2,5-dioxo-2,3,4,5-tetrahydro-1H-benzo[e][1,4]diazepin-8-yl]-3,4,5-trimethoxybenzamide] | < 5 nM | 10 nM | 4.6 µL/min/mg | 151 min |  | < 5 nM | 12.6 nM | 7.1 nM | < 5 nM | < 5 nM | < 5 nM
